Experimental data: paper PMC6512958 (Hypertension (Dallas, Tex. : 1979), 2019)

Key:
rodents = conditions: ANG1-7/MasR, rodents / diet-induced obesity; cited from earlier work
normal canines = format: in vivo, male mongrel dogs; conditions: IV infusion 8.66 pmol/kg/min
[1] = cited from earlier work
human MasR = experiment: cAMP production in HEK293 cells overexpressing human MasR; format: cell-based; conditions: 10^-7, 10^-6 and 10^-5 M, 10 min; RIA; vs no treatment; Figure 2B
[2] = test system: diabetic mice and rats overexpressing the mouse Ren2-gene; conditions: long-term treatment, cited from earlier work
humans with stable HF = conditions: chronic subcutaneous BNP, human HF; cited from earlier work
human pGC-A = experiment: cGMP production in HEK293 cells overexpressing human pGC-A; format: cell-based; conditions: 10^-10, 10^-8 and 10^-6 M, 10 min; RIA; vs no treatment; Figure 2A
HTN = conditions: cited from earlier work

In the case of Angiotensin 1-7 [ANG1–7], the “obesity-induced HTN and brown adipocyte differentiation” value (rodents) is given as “protection from obesity-induced HTN in rodents and induction of brown adipocyte differentiation”, the “reduction in MAP compared with BNP and NPA7” value (normal canines; Figure 4A) is given as “modest” and the “mean arterial pressure (MAP), during drug infusion” value (normal canines; n=5 (ANG1-7), Figure 4A) is given as “did not reduce MAP”. The half-life time [1] was “extremely short”, the in vivo degradation [1] was “rapid in vivo degradation” and the “cAMP production (MasR activation)” value (human MasR) was “significantly increasing concentrations of cAMP production”. The “cardiomyocyte hypertrophy, apoptosis and fibrosis” value ([2]; diabetic mice and rats overexpressing the mouse Ren2-gene) was “prevented” and the “cardiac function in diabetic mice” value [2] was “significantly improved”.

For B-type natriuretic peptide [BNP], the “mean arterial pressure (MAP)” value (normal canines; BNP n=5, NPA7 n=6, Figure 4A) is given as “reduced MAP significantly”, the “symptoms and myocardial structure and function” value (humans with stable HF) is given as “improved symptoms and myocardial structure and function” and the “cGMP production (pGC-A activation)” value (human pGC-A) is given as “significantly increasing concentrations of cGMP production”.

In the case of sacubitril/valsartan, the “efficacy in HTN” value (HTN) is given as “demonstrated efficacy in HTN”.
